Target: T1, HemQ (Staphylococcus aureus, UniProt Q2YS77)
T1 sequence (Q2YS77 1-250): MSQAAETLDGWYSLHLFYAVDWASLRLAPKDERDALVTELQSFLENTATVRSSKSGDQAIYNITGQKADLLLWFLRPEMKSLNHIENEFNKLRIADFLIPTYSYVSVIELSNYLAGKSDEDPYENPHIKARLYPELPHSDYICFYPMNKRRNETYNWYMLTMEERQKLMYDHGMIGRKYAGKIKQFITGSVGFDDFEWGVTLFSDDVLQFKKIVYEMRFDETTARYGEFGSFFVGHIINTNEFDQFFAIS
Test: co-purification on affinity column, absorption spectroscopy
Assay type: binding
Conditions: porphyrin added before affinity chromatography, pH 8.0

SMILES	co-purification on affinity column, absorption spectroscopy
CC1=C(CCC(=O)O)c2cc3nc(cc4[nH]c(cc5[nH]c(cc1n2)c(C)c5CCC(=O)O)c(CCC(=O)O)c4C)C(CCC(=O)O)=C3C [coproporphyrin III]	HemQ that was loaded with bound haem, protoporphyrin IX, and coproporphyrin III
C=CC1=C(C)c2cc3[nH]c(cc4nc(cc5[nH]c(cc1n2)c(C)c5CCC(=O)O)C(CCC(=O)O)=C4C)c(C)c3C=C [protoporphyrin IX]	HemQ that was loaded with bound haem, protoporphyrin IX, and coproporphyrin III

From paper PMC5095920 (Biochemical Journal, 2016)
